In paper doi:10.1101/2024.12.09.627639v1 (biorxiv, 2024) one finds EC50 data, which are given here for one compound.

The target of this assay is FFA1 (GPR40) (Homo sapiens, UniProt O14842). The assay is described as follows: aequorin calcium luminescence assay, CHO cells. The class given is cell-based.

Molecules are shown by their SMILES.

FFA1 (GPR40), sequence (O14842 whole entry): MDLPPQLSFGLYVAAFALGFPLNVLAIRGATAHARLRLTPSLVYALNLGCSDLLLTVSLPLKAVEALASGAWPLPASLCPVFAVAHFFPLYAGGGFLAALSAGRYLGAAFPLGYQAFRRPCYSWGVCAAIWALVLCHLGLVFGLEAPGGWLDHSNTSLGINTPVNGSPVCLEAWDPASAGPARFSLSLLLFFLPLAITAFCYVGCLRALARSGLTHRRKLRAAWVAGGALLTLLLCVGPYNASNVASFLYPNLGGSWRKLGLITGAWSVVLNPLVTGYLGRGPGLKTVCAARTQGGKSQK

Turning to `CC/C=C\C/C=C\C/C=C\C/C=C\C/C=C\C/C=C\CCC(=O)O` [DHA], the EC50 turned out to be 40 µM.
